Data reported in patent US20250034216A1, “STEREOSELECTIVE COVALENT LIGANDS FOR ONCOGENIC AND IMMUNOLOGICAL PROTEINS” (The Scripps Research Institute, priority 2021, published 2025).

Legend:
Experiment in all cases: IA-DTB cysteine engagement
Assay type in all cases: binding
Settings in all cases: 22Rv1 cells, 20 μM probe, 1 h, relative to DMSO
TMEM256-PLSCR3_C126 = molecular target: T1, TMEM256-PLSCR3_C126 (Homo sapiens, UniProt Q9NRY6)
T1 construct: endogenous in cells; host or cells: 22Rv1
Outline: (§1)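 Cells were treated in situ with electrophilic probes, then lysed, and the lysates (2 mg/mL protein) were labeled with IA-DTB for 1 h at ambient temperature. After reduction, alkylation and trypsin digestion, labeled peptides were streptavidin-enriched, TMT-labeled and fractionated. Engagement ratios are probe vs DMSO reporter intensities, averaged across replicates.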

NSUN3_C298 = molecular target: T2, NSUN3_C298 (Homo sapiens, UniProt Q9H649)
T2 construct: endogenous in cells; host or cells: 22Rv1
T2 sequence (Q9H649 1-340): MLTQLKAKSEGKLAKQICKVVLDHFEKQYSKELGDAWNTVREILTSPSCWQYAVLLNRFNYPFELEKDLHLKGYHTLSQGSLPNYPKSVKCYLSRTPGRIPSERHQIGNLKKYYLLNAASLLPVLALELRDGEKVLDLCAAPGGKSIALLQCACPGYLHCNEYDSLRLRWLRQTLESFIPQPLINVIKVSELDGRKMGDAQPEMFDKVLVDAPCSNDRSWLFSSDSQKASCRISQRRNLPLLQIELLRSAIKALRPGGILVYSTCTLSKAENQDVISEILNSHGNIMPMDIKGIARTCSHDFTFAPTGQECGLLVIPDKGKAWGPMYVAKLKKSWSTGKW
Outline: as §1

PAFAH2_C72 = molecular target: T3, PAFAH2_C72 (Homo sapiens, UniProt Q99487)
T3 construct: endogenous in cells; host or cells: 22Rv1
Outline: as §1

C3orf33_C275 = molecular target: T4, C3orf33_C275 (Homo sapiens, UniProt Q6P1S2)
T4 construct: endogenous in cells; host or cells: 22Rv1
T4 sequence (Q6P1S2 1-294): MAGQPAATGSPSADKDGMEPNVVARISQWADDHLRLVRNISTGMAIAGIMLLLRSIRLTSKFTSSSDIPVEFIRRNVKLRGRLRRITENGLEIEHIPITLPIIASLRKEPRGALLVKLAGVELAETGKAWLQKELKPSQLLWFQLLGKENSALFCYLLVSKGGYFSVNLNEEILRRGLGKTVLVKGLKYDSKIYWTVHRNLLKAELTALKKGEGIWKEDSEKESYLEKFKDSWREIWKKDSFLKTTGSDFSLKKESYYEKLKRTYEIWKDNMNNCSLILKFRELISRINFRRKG
Outline: as §1

ALB_C269 = molecular target: T5, ALB_C269 (Homo sapiens, UniProt P02768)
T5 construct: endogenous in cells; host or cells: 22Rv1
T5 sequence (P02768 25-609): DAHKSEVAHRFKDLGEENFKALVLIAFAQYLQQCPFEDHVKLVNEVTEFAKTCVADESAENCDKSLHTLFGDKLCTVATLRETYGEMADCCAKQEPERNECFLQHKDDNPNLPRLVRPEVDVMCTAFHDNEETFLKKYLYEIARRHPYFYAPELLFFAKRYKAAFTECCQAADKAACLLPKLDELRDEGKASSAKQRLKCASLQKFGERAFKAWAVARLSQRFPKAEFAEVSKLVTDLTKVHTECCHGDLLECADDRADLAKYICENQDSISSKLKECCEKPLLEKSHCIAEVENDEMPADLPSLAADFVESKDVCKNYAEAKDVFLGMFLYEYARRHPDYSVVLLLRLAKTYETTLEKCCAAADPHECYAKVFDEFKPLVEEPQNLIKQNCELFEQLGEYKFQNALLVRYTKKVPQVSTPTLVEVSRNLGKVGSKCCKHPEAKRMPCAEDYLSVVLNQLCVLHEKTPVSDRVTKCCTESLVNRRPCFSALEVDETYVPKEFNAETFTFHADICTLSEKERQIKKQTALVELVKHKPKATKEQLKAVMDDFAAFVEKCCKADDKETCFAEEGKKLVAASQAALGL
Outline: as §1

T1 sequence (Q9NRY6 whole entry): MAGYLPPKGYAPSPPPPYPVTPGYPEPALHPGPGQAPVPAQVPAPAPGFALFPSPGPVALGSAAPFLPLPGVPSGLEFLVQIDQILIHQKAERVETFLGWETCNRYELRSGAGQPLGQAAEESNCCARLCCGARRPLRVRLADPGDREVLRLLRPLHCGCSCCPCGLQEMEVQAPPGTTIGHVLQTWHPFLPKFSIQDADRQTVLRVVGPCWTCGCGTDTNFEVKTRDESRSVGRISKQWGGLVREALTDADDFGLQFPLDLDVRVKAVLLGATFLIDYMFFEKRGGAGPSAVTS

| % engagement TMEM256-PLSCR3_C126 (TMEM256-PLSCR3_C126) [%] | % engagement NSUN3_C298 (NSUN3_C298) [%] | % engagement PAFAH2_C72 (PAFAH2_C72) [%] | % engagement C3orf33_C275 (C3orf33_C275) [%] | % engagement ALB_C269 (ALB_C269) [%] | Compound |
| --- | --- | --- | --- | --- | --- |
| 81 | 35.5 | 61.75 | 83.5 | 42.5 | C=CC(=O)N1C[C@@H](c2ccc(Br)cc2)[C@H]1C(=O)Nc1cccc2cccnc12 [MY-1A, (2S,3R)-1-acryloyl-3-(4-bromophenyl)-N-(quinolin-8-yl)azetidine-2-carboxamide] |
| 86 | 55.5 | 61 | 83 | 47.5 | C=CC(=O)N1C[C@H](c2ccc(Br)cc2)[C@@H]1C(=O)Nc1cccc2cccnc12 [MY-1B, (2R,3S)-1-acryloyl-3-(4-bromophenyl)-N-(quinolin-8-yl)azetidine-2-carboxamide] |
| 66 | 83 | 81 | 84 | 79.5 | C=CC(=O)N1C[C@H](c2ccc(Br)cc2)[C@H]1C(=O)Nc1cccc2cccnc12 [MY-3B, (2S,3S)-1-acryloyl-3-(4-bromophenyl)-N-(quinolin-8-yl)azetidine-2-carboxamide] |
| 58 | 38 | 56.75 | 85 | 86 | C=CC(=O)N1C[C@H](c2ccc(Br)cc2)[C@H]1C(=O)Nc1cccc2cccnc12 [MY-3A, (2S,3S)-1-acryloyl-3-(4-bromophenyl)-N-(quinolin-8-yl)azetidine-2-carboxamide] |
